In ChEMBL document CHEMBL2203057, “Characterisation of [¹¹C]PR04.MZ in Papio anubis baboon: a selective high-affinity radioligand for quantitative imaging of the dopamine transporter” (Bioorg Med Chem Lett, 2012):

What was measured:
[1] = target: Sodium-dependent dopamine transporter (Rattus norvegicus, UniProt P23977); experiment: Binding affinity to rat DAT
[2] = target: T1, Sodium-dependent dopamine transporter (Homo sapiens, UniProt Q01959); experiment: Binding affinity to DAT
[3] = In vivo binding affinity to DAT in Papio anubis ventral striatum assessed as binding potential at 137.4 +/- 66.8 MBq; format: ADME, organism-based
[4] = Drug uptake in Papio anubis caudate nucleus assessed per 100 ml at 137.4 +/- 66.8 MBq measured 25 mins post dose by dynamic PET scanning method; format: ADME, tissue-based
[5] = Drug distribution in Papio anubis cerebellum assessed as drug efflux constant at 137.4 +/- 66.8 MBq; format: ADME, tissue-based
[6] = Drug distribution in Papio anubis caudate nucleus assessed as drug efflux constant at 137.4 +/- 66.8 MBq; format: ADME, tissue-based
[7] = In vivo binding affinity to DAT in Papio anubis midbrain assessed as binding potential at 137.4 +/- 66.8 MBq; format: ADME, organism-based
[8] = Drug distribution in Papio anubis midbrain assessed as drug influx constant at 137.4 +/- 66.8 MBq; format: ADME, tissue-based
[9] = Drug distribution in Papio anubis midbrain assessed as drug efflux constant at 137.4 +/- 66.8 MBq; format: ADME, tissue-based
[10] = Drug uptake in Papio anubis striatum assessed per 100 ml at 137.4 +/- 66.8 MBq measured 90 mins post dose by dynamic PET scanning method; format: ADME, tissue-based; conditions: 1.5 h
[11] = Drug distribution in Papio anubis putamen assessed as drug efflux constant at 137.4 +/- 66.8 MBq; format: ADME, tissue-based
[12] = Drug uptake in Papio anubis midbrain at 137.4 +/- 66.8 MBq measured 60 mins post dose co-treated with DAT ligand [18F]PR04.MZ by dynamic PET scanning method; format: ADME, tissue-based; conditions: 1 h
[13] = In vivo binding affinity to DAT in Papio anubis cerebellum assessed as binding potential at 137.4 +/- 66.8 MBq; format: ADME, organism-based
[14] = In vivo binding affinity to DAT in Papio anubis caudate nucleus assessed as binding potential at 137.4 +/- 66.8 MBq; format: ADME, organism-based
[15] = Drug uptake in Papio anubis ventral striatum at 137.4 +/- 66.8 MBq measured 45 mins post dose by dynamic PET scanning method; format: ADME, tissue-based; conditions: 0.75 h
[16] = Drug uptake in Papio anubis striatum assessed per 100 ml at 137.4 +/- 66.8 MBq measured 180 mins post dose by dynamic PET scanning method; format: ADME, tissue-based; conditions: 3 h
[17] = Drug uptake in Papio anubis putamen at 137.4 +/- 66.8 MBq measured 60 mins post dose co-treated with 1.5 mg/kg DAT ligand GBR12909 by dynamic PET scanning method; format: ADME, organism-based; design: dose 1.5 mg/kg; conditions: in vivo, 1 h
[18] = Drug uptake in Papio anubis mid brain at 137.4 +/- 66.8 MBq measured 90 mins post dose by dynamic PET scanning method; format: ADME, tissue-based, Midbrain; conditions: 1.5 h
[19] = Drug distribution in Papio anubis ventral striatum assessed as drug efflux constant at 137.4 +/- 66.8 MBq; format: ADME, tissue-based
[20] = Drug uptake in Papio anubis ventral striatum at 137.4 +/- 66.8 MBq measured 90 mins post dose by dynamic PET scanning method; format: ADME, tissue-based; conditions: 1.5 h
[21] = Drug uptake in Papio anubis mid brain at 137.4 +/- 66.8 MBq measured 3.5 mins post dose by dynamic PET scanning method; format: ADME, tissue-based, Midbrain
[22] = Drug distribution in Papio anubis putamen assessed as drug influx constant at 137.4 +/- 66.8 MBq; format: ADME, tissue-based
Nucleic Acid = experiment: Ratio of drug level in midbrain to cerebellum in Papio anubis midbrain at 137.4 +/- 66.8 MBq measured 90 mins post dose; format: ADME; conditions: 1.5 h
[23] = Drug uptake in Papio anubis mid brain at 137.4 +/- 66.8 MBq measured 45 mins post dose by dynamic PET scanning method; format: ADME, tissue-based, Midbrain; conditions: 0.75 h
[24] = In vivo binding affinity to DAT in Papio anubis putamen assessed as binding potential at 137.4 +/- 66.8 MBq; format: ADME, organism-based
[25] = Drug uptake in Papio anubis ventral striatum at 137.4 +/- 66.8 MBq measured 7.5 +/- 0.5 mins post dose by dynamic PET scanning method; format: ADME, tissue-based
[26] = Drug uptake in Papio anubis putamen assessed per 100 ml at 137.4 +/- 66.8 MBq measured 25 +/- 2.5 mins post dose by dynamic PET scanning method; format: ADME, tissue-based
[27] = Drug uptake in Papio anubis striatum assessed per 100 ml at 137.4 +/- 66.8 MBq measured 25 +/- 2.5 mins post dose by dynamic PET scanning method; format: ADME, tissue-based
[28] = Drug distribution in Papio anubis caudate nucleus assessed as drug influx constant at 137.4 +/- 66.8 MBq; format: ADME, tissue-based
[29] = Drug uptake in Papio anubis putamen at 137.4 +/- 66.8 MBq measured 60 mins post dose co-treated with DAT ligand [18F]PR04.MZ by dynamic PET scanning method; format: ADME, tissue-based; conditions: 1 h
[30] = Drug distribution in Papio anubis ventral striatum assessed as drug influx constant at 137.4 +/- 66.8 MBq; format: ADME, tissue-based
[31] = Drug uptake in Papio anubis caudate nucleus at 137.4 +/- 66.8 MBq measured 60 mins post dose co-treated with 1.5 mg/kg DAT ligand GBR12909 by dynamic PET scanning method; format: ADME, organism-based; design: dose 1.5 mg/kg; conditions: in vivo, 1 h
[32] = Drug uptake in Papio anubis midbrain at 137.4 +/- 66.8 MBq measured 60 mins post dose co-treated with 1.5 mg/kg DAT ligand GBR12909 by dynamic PET scanning method; format: ADME, organism-based; design: dose 1.5 mg/kg; conditions: in vivo, 1 h
Brain = experiment: Drug uptake in Papio anubis whole brain assessed per 100 ml at 137.4 +/- 66.8 MBq measured 3 +/- 0.5 mins post dose by dynamic PET scanning method; format: ADME, tissue-based
[33] = Drug distribution in Papio anubis cerebellum assessed as drug influx constant at 137.4 +/- 66.8 MBq; format: ADME, tissue-based
[34] = Stability in Sprague-Dawley rat brain assessed as intact compound level measured 60 mins post dose by HPLC; format: ADME, tissue-based; conditions: read-out: Stability
[35] = Unbound fraction in Papio anubis plasma at 137.4 +/- 66.8 MBq; format: ADME, cell-free
[36] = Drug uptake in Papio anubis caudate nucleus at 137.4 +/- 66.8 MBq measured 60 mins post dose co-treated with DAT ligand [18F]PR04.MZ by dynamic PET scanning method; format: ADME, tissue-based; conditions: 1 h
[37] = Stability in Papio anubis plasma assessed as intact compound level at 137.4 +/- 66.8 MBq measured 30 mins post dose; format: ADME, cell-free; conditions: read-out: Stability
[38] = target: T2, Sodium-dependent serotonin transporter (Homo sapiens, UniProt P31645); experiment: Displacement of [3H]citalopram from human SERT expressed in HEK293 cells; format: cell-based
T2 sequence (P31645 whole entry): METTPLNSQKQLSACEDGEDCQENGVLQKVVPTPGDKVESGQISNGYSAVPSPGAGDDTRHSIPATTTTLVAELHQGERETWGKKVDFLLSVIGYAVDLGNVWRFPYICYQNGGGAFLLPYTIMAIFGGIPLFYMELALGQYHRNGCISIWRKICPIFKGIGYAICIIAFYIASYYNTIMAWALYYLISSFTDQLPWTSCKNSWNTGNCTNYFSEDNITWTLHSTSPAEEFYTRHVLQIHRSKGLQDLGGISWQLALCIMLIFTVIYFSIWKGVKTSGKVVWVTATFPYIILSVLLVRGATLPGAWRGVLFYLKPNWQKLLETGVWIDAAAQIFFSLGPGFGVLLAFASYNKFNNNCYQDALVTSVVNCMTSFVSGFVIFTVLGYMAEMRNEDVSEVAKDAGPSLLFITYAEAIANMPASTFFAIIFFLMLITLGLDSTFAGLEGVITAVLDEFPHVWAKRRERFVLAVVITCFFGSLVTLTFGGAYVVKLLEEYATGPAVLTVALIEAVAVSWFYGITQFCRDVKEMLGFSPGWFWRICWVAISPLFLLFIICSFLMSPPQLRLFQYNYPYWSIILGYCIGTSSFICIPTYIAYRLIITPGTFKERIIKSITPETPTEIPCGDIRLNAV

[39] = target: T2, Sodium-dependent serotonin transporter; experiment: Displacement of [3H]5-HT from human SERT expressed in HEK293 cells; format: cell-based
[40] = target: T3, Sodium-dependent noradrenaline transporter (Homo sapiens, UniProt P23975); experiment: Displacement of [3H]nisoxetine from human NET expressed in HEK293 cells; format: cell-based
T3 sequence (P23975 whole entry): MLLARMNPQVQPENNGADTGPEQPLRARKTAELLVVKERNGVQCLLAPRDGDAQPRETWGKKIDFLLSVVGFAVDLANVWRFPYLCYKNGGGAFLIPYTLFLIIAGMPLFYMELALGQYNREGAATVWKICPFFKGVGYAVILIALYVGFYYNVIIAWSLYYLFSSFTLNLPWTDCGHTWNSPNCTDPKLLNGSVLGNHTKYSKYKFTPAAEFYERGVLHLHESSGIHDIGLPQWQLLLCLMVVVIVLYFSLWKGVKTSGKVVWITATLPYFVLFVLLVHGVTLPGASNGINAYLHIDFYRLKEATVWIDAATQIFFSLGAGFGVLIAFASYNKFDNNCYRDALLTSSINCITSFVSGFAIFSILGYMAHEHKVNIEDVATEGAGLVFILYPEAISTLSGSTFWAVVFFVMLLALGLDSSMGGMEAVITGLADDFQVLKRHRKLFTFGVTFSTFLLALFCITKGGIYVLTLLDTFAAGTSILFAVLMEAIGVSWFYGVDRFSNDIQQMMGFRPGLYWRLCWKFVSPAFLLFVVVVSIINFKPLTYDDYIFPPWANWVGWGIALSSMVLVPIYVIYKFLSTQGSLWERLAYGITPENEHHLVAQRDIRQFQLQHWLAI

[41] = target: T1, Sodium-dependent dopamine transporter; experiment: Displacement of [3H]WIN35,428 from human DAT expressed in HEK293 cells; format: cell-based
[42] = target: T3, Sodium-dependent noradrenaline transporter; experiment: Displacement of [3H]NE from human NET expressed in HEK293 cells; format: cell-based
[43] = target: T1, Sodium-dependent dopamine transporter; experiment: Displacement of [3H]DA from human DAT expressed in HEK293 cells; format: cell-based
[44] = Lipophilicity, log D of the compound at pH 7.4 by HPLC; format: physicochemical; conditions: buffer

T1 sequence (Q01959 whole entry): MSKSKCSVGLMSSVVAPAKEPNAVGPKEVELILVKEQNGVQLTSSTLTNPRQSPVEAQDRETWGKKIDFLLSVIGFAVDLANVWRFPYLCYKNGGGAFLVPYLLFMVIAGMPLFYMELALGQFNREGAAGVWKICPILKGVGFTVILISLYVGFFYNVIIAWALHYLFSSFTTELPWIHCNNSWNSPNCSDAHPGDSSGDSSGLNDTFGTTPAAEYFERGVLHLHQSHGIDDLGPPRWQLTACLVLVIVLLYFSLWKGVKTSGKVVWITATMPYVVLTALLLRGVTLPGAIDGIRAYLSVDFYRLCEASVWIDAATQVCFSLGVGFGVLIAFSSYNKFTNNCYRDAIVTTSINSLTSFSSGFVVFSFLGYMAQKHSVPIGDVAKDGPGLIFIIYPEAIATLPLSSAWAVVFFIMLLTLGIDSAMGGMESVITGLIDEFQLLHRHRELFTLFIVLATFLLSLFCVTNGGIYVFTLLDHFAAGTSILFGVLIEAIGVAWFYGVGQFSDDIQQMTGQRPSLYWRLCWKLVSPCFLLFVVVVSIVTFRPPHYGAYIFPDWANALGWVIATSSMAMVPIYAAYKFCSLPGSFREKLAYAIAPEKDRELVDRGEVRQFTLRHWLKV
Sodium-dependent dopamine transporter (Rattus norvegicus, UniProt P23977), sequence (P23977 whole entry): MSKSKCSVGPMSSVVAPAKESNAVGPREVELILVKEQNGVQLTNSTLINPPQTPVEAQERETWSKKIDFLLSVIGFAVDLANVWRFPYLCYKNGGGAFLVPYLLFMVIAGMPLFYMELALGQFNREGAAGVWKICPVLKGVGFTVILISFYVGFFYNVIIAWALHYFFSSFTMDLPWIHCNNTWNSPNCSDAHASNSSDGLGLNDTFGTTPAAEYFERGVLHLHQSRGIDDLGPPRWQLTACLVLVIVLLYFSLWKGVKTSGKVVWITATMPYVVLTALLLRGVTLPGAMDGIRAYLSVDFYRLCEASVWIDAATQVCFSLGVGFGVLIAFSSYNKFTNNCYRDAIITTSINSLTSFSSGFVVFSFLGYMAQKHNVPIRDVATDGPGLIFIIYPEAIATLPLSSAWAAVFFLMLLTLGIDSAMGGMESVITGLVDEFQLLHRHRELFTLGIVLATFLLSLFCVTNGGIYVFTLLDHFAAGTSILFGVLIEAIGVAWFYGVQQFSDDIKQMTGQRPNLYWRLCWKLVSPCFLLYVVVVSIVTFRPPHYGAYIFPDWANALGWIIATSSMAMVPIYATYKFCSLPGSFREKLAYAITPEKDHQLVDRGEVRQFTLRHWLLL

## COC(=O)[C@H]1[C@@H](c2ccc(C)cc2)C[C@@H]2CC[C@H]1N2C/C=C/CF
[1]
  Kd: 9 nM

## COC(=O)[C@H]1[C@@H](c2ccc(Cl)cc2)C[C@@H]2CC[C@H]1N2CCF
[2]
  Ki: 8 nM

## COC(=O)[C@H]1[C@@H](c2ccc(C)cc2)C[C@@H]2CC[C@H]1N2C/C=C/I
[1]
  Kd: 4 nM

## Cc1ccc([C@H]2C[C@@H]3CC[C@H]([C@H]2C(=O)O[11CH3])N3CC#CCF)cc1
[3]
  Activity: 8.2 ml/cm3
[4]
  Drug uptake: 6.7 %ID
[5]
  Activity: 0.036 min⁻¹
[6]
  Activity: 0.004 min⁻¹
[7]
  Activity: 2.7 ml/cm3
[8]
  Activity: 0.064 ml/cm3/min
[9]
  Activity: 0.016 min⁻¹
[10]
  Drug uptake: 6.7 %ID
[11]
  Activity: 0.004 min⁻¹
[12]
  Drug uptake: Not Active
[13]
  Activity: 0 ml/cm3
[14]
  Activity: 29.3 ml/cm3
[15]
  Drug uptake: 3.1 %ID/ml
[16]
  Drug uptake: 4.8 %ID
[17]
  Drug uptake: Not Active
[18]
  Drug uptake: 0.8 %ID/ml
[19]
  Activity: 0.0076 min⁻¹
[20]
  Drug uptake: 2.55 %ID/ml
[21]
  Drug uptake: 2.8 %ID/ml
[22]
  Activity: 0.015 ml/cm3/min
Nucleic Acid
  Ratio: 4.6
[23]
  Drug uptake: 1.3 %ID/ml
[24]
  Activity: 36.8 ml/cm3
[25]
  Drug uptake: 3.8 %ID/ml
[26]
  Drug uptake: 7.6 %ID
[27]
  Drug uptake: 7.6 %ID
[28]
  Activity: 0.017 ml/cm3/min
[29]
  Drug uptake: Not Active
[30]
  Activity: 0.03 ml/cm3/min
[31]
  Drug uptake: Not Active
[32]
  Drug uptake: Not Active
Brain
  Drug uptake: 26.1 %ID
[33]
  Activity: 0.144 ml/cm3/min
[34]
  remaining at 1 h: > 95%
[35]
  Fu: 4.4 %ID
[36]
  Drug uptake: Not Active
[37]
  remaining at 0.5 h: 39%

## COC(=O)[C@H]1[C@@H](c2ccc(C)cc2)C[C@@H]2CC[C@H]1N2CC#CCF
[38]
  IC50: 108 nM
[39]
  IC50: 240 nM
[40]
  IC50: 22.5 nM
[41]
  IC50: 1.93 nM
[42]
  IC50: 31 nM
[43]
  IC50: 3.26 nM
[44]
  logD: 2.7
